Publication PMC10972756, “A helical fulcrum in eIF2B coordinates allosteric regulation of stress signaling” (Nature Chemical Biology, 2023)

How the values were obtained:
eIF2B(αβγδε)2 decamer [1] = target: T1, eIF2B(αβγδε)2 decamer (Homo sapiens, UniProt P49770+Q9UI10); experiment: hydrogen-deuterium exchange mass spectrometry; type: binding; settings: 20 mM HEPES, 200 mM KCl, 5 mM MgCl2, 1 mM TCEP, pH 7.9; ISRIB pocket, groove between eIF2Bβ and eIF2Bδ'; allosteric
T1 construct: gene EIF2B2; recombinant human eIF2Bα2 (pJT075) mixed with eIF2Bβγδε (pJT073 + pJT074 coexpression); heterodecamer; 2,369 unique amino acids; with Translation initiation factor eIF2B subunit alpha; Translation initiation factor eIF2B subunit gamma; Translation initiation factor eIF2B subunit epsilon

eIF2B(αβγδε)2 decamer [2] = target: T2, eIF2B(αβγδε)2 decamer (Homo sapiens, UniProt P49770+Q9UI10, Q9UI10:L516A); experiment: fluorescence polarization, eIF2B titration; type: binding; settings: labelled compound; 2.5 nM FAM-ISRIB; 20 mM HEPES-KOH pH 7.5, 100 mM KCl, 5 mM MgCl2, 1 mM TCEP; 25 °C; ISRIB pocket; read-out: half-maximal effective concentration
T2 construct: gene EIF2B2; recombinant human eIF2Bα2 (pJT075) mixed with eIF2Bβγδε (pJT073 + pJT074 coexpression); heterodecamer; 2,369 unique amino acids; with Translation initiation factor eIF2B subunit alpha; Translation initiation factor eIF2B subunit gamma; Translation initiation factor eIF2B subunit epsilon

eIF2B(αβγδε)2 decamer [3] = target: T3, eIF2B(αβγδε)2 decamer (Homo sapiens, UniProt P49770+Q9UI10, Q9UI10:E445A); experiment: fluorescence polarization, eIF2B titration; type: binding; settings: labelled compound; 2.5 nM FAM-ISRIB; 20 mM HEPES-KOH pH 7.5, 100 mM KCl, 5 mM MgCl2, 1 mM TCEP; 25 °C; ISRIB pocket; read-out: half-maximal effective concentration
T3 construct: gene EIF2B2; recombinant human eIF2Bα2 (pJT075) mixed with eIF2Bβγδε (pJT073 + pJT074 coexpression); heterodecamer; 2,369 unique amino acids; with Translation initiation factor eIF2B subunit alpha; Translation initiation factor eIF2B subunit gamma; Translation initiation factor eIF2B subunit epsilon

eIF2B(αβγδε)2 decamer [4] = target: T1, eIF2B(αβγδε)2 decamer; experiment: fluorescence polarization, eIF2B titration; type: binding; settings: labelled compound; 2.5 nM FAM-ISRIB; 20 mM HEPES-KOH pH 7.5, 100 mM KCl, 5 mM MgCl2, 1 mM TCEP; 25 °C; ISRIB pocket; read-out: half-maximal effective concentration
eIF2B(αβγδε)2 decamer [5] = target: T4, eIF2B(αβγδε)2 decamer (Homo sapiens, UniProt P49770+Q9UI10, Q9UI10:F443A); experiment: fluorescence polarization, eIF2B titration; type: binding; settings: labelled compound; 2.5 nM FAM-ISRIB; 20 mM HEPES-KOH pH 7.5, 100 mM KCl, 5 mM MgCl2, 1 mM TCEP; 25 °C; ISRIB pocket; read-out: half-maximal effective concentration
T4 construct: gene EIF2B2; recombinant human eIF2Bα2 (pJT075) mixed with eIF2Bβγδε (pJT073 + pJT074 coexpression); heterodecamer; 2,369 unique amino acids; with Translation initiation factor eIF2B subunit alpha; Translation initiation factor eIF2B subunit gamma; Translation initiation factor eIF2B subunit epsilon

eIF2Bβγδ^F443Aε tetramer = eIF2Bβγδ^F443Aε tetramer (human, UniProt P49770 2-351; Q9NR50 1-452; Q9UI10 1-523; Q13144 1-721, δF443A); experiment: AUC; sedimentation velocity, 40,000 r.p.m., 20 °C, 20 mM HEPES-KOH pH 7.5, 150 mM KCl, 1 mM TCEP, 5 mM MgCl2; tetramer mixed with eIF2Bα2 (2:1 or 1:1 tetramer:dimer); continuous c(S) distribution; settings: both partners purified
eIF2Bβγδ^E445Aε tetramer = eIF2Bβγδ^E445Aε tetramer (human, UniProt P49770 2-351; Q9NR50 1-452; Q9UI10 1-523; Q13144 1-721, δE445A); experiment: as above; settings: both partners purified
[6] = target: the molecule itself; experiment: cryo-EM structure; 20 µM eIF2Bδ^L516A βγδε incubated with 11 µM eIF2Bα2 in 20 mM HEPES-KOH, 200 mM KCl, 5 mM MgCl2, 1 mM TCEP; diluted to 750 nM for grids

Molecule: O=C(COc1ccc(Cl)c(F)c1)NC12CC(NC(=O)c3cnc(C(F)F)cn3)(C1)C2 [2BAct]
- hydrogen-deuterium exchange mass spectrometry (eIF2B(αβγδε)2 decamer [1]): We also observed protection in peptides at the 2BAct binding site

Molecule: FAM-ISRIB
- EC50 (eIF2B(αβγδε)2 decamer [2]): 169 ± 34 nM
- EC50 (eIF2B(αβγδε)2 decamer [3]): 30 ± 2 nM
- EC50 (eIF2B(αβγδε)2 decamer [4]): 38 ± 2 nM
- EC50 (eIF2B(αβγδε)2 decamer [5]): 50 ± 8 nM

B1: eIF2Bα2 dimer, wild type (complex, human)
chain: DDKELIEYFKSQMKEDPDMASAVAAIRTLLEFLKRDKGETIQGLRANLTSAIETLCGVDSSVAVSSGGELFLRFISLASLEYSDYSKCKKIMIERGELFLRRISLSRNKIADLCHTFIKDGATILTHAYSRVVLRVLEAAVAAKKRFSVYVTESQPDLSGKKMAKALCHLNVPVTVVLDAAVGYIMEKADLVIVGAEGVVENGGIINKIGTNQMAVCAKAQNKPFYVVAESFKFVRLFPLNQQDVPDKFKYKADTLKVAQTGQDLKEEHPWVDYTAPSLITLLFTDLGVLTPSAVSDELIKLYL
notes: also called eIFBα2
- binding result (eIF2Bβγδ^F443Aε tetramer): binds
- binding result (eIF2Bβγδ^E445Aε tetramer): binds
- binding result [6]: binds
